Data on 2 molecules can be found in ChEMBL document CHEMBL4265871, “Novel alkylated azoles as potent antifungals” (Eur J Med Chem, 2017).

For data set [1], the system named is A549. Briefly: Toxicity in human A549 cells assessed as reduction in cell viability up to 7.8 ug/ml incubated for 24 hrs by resazurin dye based assay. As to conditions: a549, 24 h. On the technique in general: Resazurin is reduced to fluorescent resorufin, in cell work by metabolically active cells.
Data set [2] has as its system BEAS-2B. In words: Toxicity in human BEAS2B cells assessed as reduction in cell viability up to 7.8 ug/ml incubated for 24 hrs by resazurin dye based assay.
For data set [3], the system named is Candida albicans. In words: Fungicidal activity against Candida albicans ATCC 10231 assessed as reduction in microbial growth at 4 times MIC incubated for 6 hrs by time kill assay. Format: functional.
Data set [4] concerns Candida albicans. Briefly: Effect on sterol composition in Candida albicans ATCC 10231 assessed as eburicol level at 0.125 ug/mL incubated for […] by GC-MS analysis.
In data set [5] the test system is Candida albicans. Briefly: Effect on sterol composition in Candida albicans ATCC 10231 assessed as lanosterol level at 0.125 ug/mL incubated for 10 mins by GC-MS analysis (reference value: 4.17%).
In data set [6] the test system is Candida albicans. In words: Effect on sterol composition in Candida albicans ATCC 64124 assessed as unknown sterol level at 1.95 ug/mL incubated for 10 mins by LC-MS analysis (reference value: 2.67 to 6.98%).
Data set [7] has as its system Candida albicans. In words: Effect on sterol composition in Candida albicans ATCC 10231 assessed as 14-alpha-methyl-ergosta-8,24(28)dien-3beta,6alpha-diol level at 0.125 ug/mL incubated for […] by GC-MS analysis.
Data set [8] relates to Candida albicans. In words: Effect on sterol composition in Candida albicans ATCC 10231 assessed as unknown sterol level at 0.125 ug/mL incubated for 10 mins by GC-MS analysis (reference value: 1.88 to 2.78%).
Data set [9] concerns Candida albicans. In words: Effect on sterol composition in Candida albicans ATCC 10231 assessed as ergosterol level at 0.125 ug/mL incubated for 10 mins by GC-MS analysis (reference value: 91.15%).

For the molecule `CCCCCCCCC(O)(Cn1cncn1)c1ccc(F)cc1F` (centres undefined), the Activity result in data set [1] and in data set [2] was “Non-Toxic” each time.
Regarding `CCCCCCC(O)(Cn1cncn1)c1ccc(Cl)cc1Cl` (centres undefined), the Activity in data set [3] is 1.25 log10CFU; in data set [4] it was 2.93%; in data set [5], 19.3%; in data set [6] it was 4.25 - 13.04%; in data set [7], 18.81%; in data set [8] it was 4.36 - 5.57%. Further, the Activity in [9] worked out at 49%.
